The structures appear in SMILES notation.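 Interpolation was linear, between the two tested concentrations surrounding the appropriate level; five concentrations were tested over 48 hours in 96-well plates. GI50: concentration for 50% inhibition of growth.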 Calls of active or inactive are those of the source. No stated cut-off is given here; in the data, active = GI50 up to about 1.1 µM and inactive = higher.

Test in all cases: DTP human tumour cell line panel, 48 h
The subject of experiment [1] is NCI-H23.
Experiment [2] deals with MDA-MB-435.
Experiment [3] deals with UO-31.
Experiment [4] deals with UACC-257.
Experiment [5] deals with SN12C.
In experiment [6] the test system is U-251.
In experiment [7] the test system is MOLT-4.
Experiment [8] concerns MDA-N.
In experiment [9] the test system is HOP-92.
In experiment [10] the test system is RPMI-8226.
Experiment [11] concerns BT-549.
In experiment [12] the test system is CAKI-1.
In experiment [13] the test system is RXF 393.
For experiment [14], the system named is SF-268.
Experiment [15] has as its system SW-620.
The test system of experiment [16] is HCT-116.
In experiment [17] the test system is SF-295.
Experiment [18] relates to MCF7.
Experiment [19] concerns SNB-75.
Experiment [20] has as its system MDA-MB-231.

The term GI50 denotes the concentration at which growth is held to half of that of the control. With `Cc1cc(OCc2nc(N)nc(N)c2-c2ccc(Cl)c(Cl)c2)ccc1[N+](=O)[O-]`, the GI50 in [1] is 141 nM (active); in experiment [2], 72.1 nM (active); in experiment [3] it was 791 nM (active); in [4], 45.1 nM (active); in experiment [5], 726 nM (active); in [6] it was 88.9 nM (active). Moreover, the GI50 was 93.3 nM (active) in [7]; 77.6 nM (active) in experiment [8]; 4920 nM (inactive) in experiment [9]; 1460 nM (inactive) in [10]; 1030 nM (active) in [11]; 558 nM (active) in experiment [12]. The GI50 in [13] is 794 nM (active); in experiment [14] it was 771 nM (active); in experiment [15], 235 nM (active); in experiment [16], 50.2 nM (active); in [17] it was 67.8 nM (active); in [18], 262 nM (active). The GI50 in [19] was 2100 nM (inactive); in experiment [20], 384 nM (active).

Turning to `CC(=N\N)/C(C)=N/N=C(C)/C(C)=N/N=C(C)/C(C)=N/N`, the GI50 in experiment [1], in [2], in experiment [3], in experiment [4], in experiment [5] and in experiment [6] was > 100000 nM (inactive) in each case. The GI50 in [7] was 100 nM (active); in experiment [8], > 100000 nM (inactive); in experiment [9] it was > 100000 nM (inactive); in experiment [10], > 100000 nM (inactive); in experiment [11] it was > 100000 nM (inactive); in experiment [12] it was > 100000 nM (inactive). The GI50 in experiment [13], in [14], in experiment [15], in experiment [16], in experiment [17] and in experiment [18] was > 100000 nM (inactive) each time. In addition, the GI50 in experiment [19] and in [20] was > 100000 nM (inactive) in each case.

On to `OCc1ccc(-c2ccc(-c3ccc(CO)s3)o2)s1`, for which the GI50 was 17900 nM (inactive) in experiment [1]; 4050 nM (inactive) in experiment [2]; 35500 nM (inactive) in experiment [3]; 25.4 nM (active) in experiment [4]; 5130 nM (inactive) in [5]; 64.6 nM (active) in experiment [6]. Also, the GI50 in experiment [7] was 3210 nM (inactive); in [8], 5060 nM (inactive); in experiment [9], 32600 nM (inactive); in experiment [10], 2990 nM (inactive); in experiment [11], 4040 nM (inactive); in experiment [12], 11.6 nM (active). Further, the GI50 in experiment [13] was 285 nM (active); in experiment [14], 49000 nM (inactive); in experiment [15], 224 nM (active); in [16] it was 62.2 nM (active); in experiment [17], 7400 nM (inactive); in experiment [18], 33.6 nM (active). Moreover, the GI50 is 36600 nM (inactive) in experiment [19] and 41400 nM (inactive) in experiment [20].

`CC1(C)CC(O)C2=C(O1)C(=O)c1ncccc1C2=O` (stereo not given): the GI50 was 1640 nM (inactive) in [1]; 1710 nM (inactive) in [2]; 1850 nM (inactive) in experiment [3]; 1710 nM (inactive) in experiment [4]; 1940 nM (inactive) in [5]; 1750 nM (inactive) in experiment [6]. Also, the GI50 in experiment [7] is 1930 nM (inactive); in experiment [8], 1750 nM (inactive); in experiment [9], 2280 nM (inactive); in experiment [10], 2480 nM (inactive); in experiment [11], 1750 nM (inactive); in [12], 2240 nM (inactive). The GI50 in [13] is 3400 nM (inactive); in experiment [14] it was 2000 nM (inactive); in [15] it was 1870 nM (inactive); in experiment [16], 2280 nM (inactive); in [17], 1830 nM (inactive); in [18], 2120 nM (inactive). The GI50 in [19] was 530 nM (active); in experiment [20] it was 2290 nM (inactive).

Source of the values: ChEMBL document CHEMBL1201862, “PubChem BioAssay data set” (2004).
